Results: patent publication US8440804B2, “Polypeptides having modulatory effects on cells” (Ecole Normale Superieure de Lyon, priority 2006, dated 2013)

Experiments:
Hela cells = test: Colony formation assay (cell proliferation assay, crystal violet); assay type: cell-based; settings: continuous expression 2 weeks, compared to AptaLib and human thioredoxin
Experimental: (§1) (B) Colony formation assays. Hela or MCF-7 cells were transfected with plasmids directing the stable expression of the Cdk inhibitor p21, a library of peptide aptamers from pBK1 (AptaLib), Human thioredoxin (HTRX), and peptide aptamers R7G44, R5G42, R5G52. The cells were cultured for two weeks and the colonies were stained with crystal violet.
(§2) The inventors wished to establish the antiproliferative activity of these peptide aptamers using alternative cellular models and a non-retroviral vector to express individually each aptamer. They cloned the aptamer coding genes into a vector bearing a hygromycin selection marker. They also subcloned the pBK1 library into this vector, to create “AptaLib”. They continuously expressed the aptamers, the empty thioredoxin scaffold or AptaLib in Hela and MCF-7 cells for 2 weeks and they stained the cells that grew. […] These aptamers may originate from the remaining background of slowly proliferating cells during the seventh screening iteration, independently of the expressed aptamers. […] This could be due to the fact that the CMTMR assay is more sensitive in detecting modest antiproliferative effects than the colony formation assay or that some peptide aptamers somehow enhance the CMTMR labeling of their host cells.
(§3) To stably express peptide aptamers in mammalian cells, the episomal eukaryotic expression vector pCEP4 that bears a CMV promoter and a hygromycin selection marker (InVitrogen) was used. Aptamer coding sequences were PCR amplified using the oligonucleotides
(§4) that contained a stop codon. The PCR products were digested with NheI and NotI and ligated into NheI/NotI-cut pCEP4 to create pEA-aptamer plasmids. 3×10^5 cells/well were plated in 6-well plates and transfected 24 h after using Jet PEI (Qbiogen), 3.7 μg pEA-aptamer plasmids and 0.3 μg pEGFP-C1 (Clontech) to monitor transfection. Hygromycin (InVitrogen) was added at 200 μg/ml two days later and the cells were cultured for 2 weeks, renewing the medium twice a week. The cells were then rinsed in PBS and were fixed and stained by incubating 30 min in crystal violet (0.05% crystal violet, 20% ethanol, 0.37% formaldehyde). Excess crystal violet was removed by washing with water. In Vitro Phosphatase Assay

MCF-7 cells = test: as above; assay type: cell-based; settings: MCF-7, continuous expression 2 weeks, compared to AptaLib and human thioredoxin
Experimental: as §1, §2, §3, §4

CNA = test: Yeast two-hybrid assay; assay type: binding, human; settings: mating assay, LexA-aptamer fusions
Text: (A) Yeast two-hybrid mating assay. TB50α yeast were co-transformed with pSH18-34T (bearing a lacZ reporter gene) and plasmids directing the expression of LexA alone or in fusion with peptide aptamers R5G42, R7G44 or R5G52. MB210a yeast were transformed with the selected cDNA library plasmids directing the expression of CNAβ, CNAγ, and NS5ATP2 truncated proteins. To obtain negative controls, MB210a yeast were also transformed with the empty prey plasmid (pJG4-5) and with pJG4-5 directing the expression of Ras and FKBP12 prey proteins. To obtain a positive control, MB210a yeast were transformed with pJG4-5 directing the expression of RG22 peptide aptamer prey fusion protein that interacts with LexA in the context of most LexA fusion proteins.
The inventors set out to map the R5G42 binding site on CNA. The CNA interacting clones selected in the yeast two-hybrid experiments corresponded to the carboxy-terminal regions of the beta and gamma isoforms, encompassing the calmodulin-binding domain and the auto-inhibitory domain (see FIG. 3B). […] The LexA-R5G52 bait protein may thus not be properly expressed and/or folded in this yeast two-hybrid setting.
The inventors explored the ability of R5G42 mutants having a one amino acid change as compared to R5G42, to bind to CNA beta and gamma C-Terminal fragments (FIG. 3b) and to NS5A-TP2. To this end, they proceeded to yeast-two hybrid assays as in example 3. CNA beta and gamma C-Terminal fragments (FIG. 3b) and NS5A-TP2 were cloned in three different plasmids (pSH18-34, pJK103 and pRB18-40), which differed from each other in the level of sensitivity of their promoter to the bait/prey complex formation, pSH18-34 having the highest sensitivity and pRB18-40 having the lowest.
The 5′ end of RH6 (upper case) matches part of the HA epitope tag and the 5′ ends of RH4, RH3 and RH7 (upper case) match the 5′ extremity of the ADH terminator. The PCR reactions was performed using pCMV-SPORT6-CnAβ as a template. CnAβCter Δ1, Δ2, CaM were constructed by combining oligonucleotides RH6/RH4, RH6/RH3, RH6/RH7, respectively. […]

[1] = test system: purified CNA (calcineurin); test: In vitro calcineurin phosphatase assay (pNPP substrate); assay type: biochemical
Experimental: (A) In vitro calcineurin phosphatase assay. Dephosphorylation of the model substrate pNPP by purified calcineurin was measured in presence of various amounts of purified calmodulin (CaM), GST-R5G42 or GST-R7G44 fusion proteins.
The inventors next explored the ability of R5G42 to modulate the enzymatic activity of its target protein. To this end, they first performed an in vitro phosphatase assay using purified CNA and para-nitrophenylphosphate (pNPP) as a substrate.
GST-aptamer fusion proteins were first produced as described above. For this experiment, GST-aptamer fusion proteins were eluted from glutathion sepharose beads using 20 mM reduced L-glutathione (Sigma), and the eluates were dialyzed overnight against a phosphatase buffer (50 mM Tris-HCl pH7.4, 0.1 mM CaCl2). The phosphatase activity of calcineurin was measured using pNPP (Sigma) as substrate, in a final volume of 100 μl. The sample solution contained 50 mM Tris-HCl (pH7.4), 0.1 mM CaCl2, 1 mM NiSO4, 0.15 mg/ml BSA (Sigma), 0.1 μM calcineurin (Upstate). Purified calmodulin (Upstate) and GST-aptamer fusion proteins were added at different concentrations (see figure legend). After a 15 min pre-incubation at 37° C., the reactions were started by adding 4.1 mM pNPP and the mixtures were incubated at 37° C. for 20 min. The nitrophenylate product was measured at 405 nm using an Envision plate reader (Perkin Elmer). The background level that was determined was subtracted using a mixture lacking calcineurin.

[2] = test system: purified CNA (bovine brain purified calcineurin); test: In vitro binding assay (affinity capture on glutathione-sepharose, western blot); settings: glutathione-sepharose beads, anti-calcineurin western blot
Text: (C) Affinity capture assay.
The inventors performed two yeast two-hybrid screening experiments against a LexA-R5G42 bait protein, using a human testis and a human fcetal brain cDNA library. They obtained 29 and 42 reconfirmed clones, respectively. […] The inventors thus retained two candidates. The highest occurring clone, from both libraries, corresponded to the NS5A-TP2 protein, recently discovered through a systematic search for genes that are transactivated by the non-structural NS5A protein from hepatitis C virus (22). No biological knowledge is currently available for this protein. The other remaining target candidate was calcineurin A (CNA), for which two different isoforms (beta and gamma) were selected from the testes library (see FIG. 3A). To confirm the interaction between R5G42 and CNA, the inventors performed an in vitro binding assay between recombinant purified GST-aptamer fusion proteins, coupled to a glutathione-sepharose matrix, and purified CNA.
In Vitro Binding Assay pVRV6-aptamer plasmids were first digested with EcoRI and XhoI and the fragments were ligated into EcoRI/XhoI-cut pGEX4T1. GST-aptamer fusions were expressed in a BL-21(DE3) E. coli strain. […] The samples were loaded onto a SDS-PAGE, transferred to nitrocellulose membrane, and calcineurin was detected by western-blotting using an anti-calcineurin pan A antibody (1/1000, Chemicon International). […]

Question: Which results are given for “R7G11: peptide aptamer: variable region LHLAGRGWEN in human thioredoxin (SEQ ID 30) (Aptamer variable sequence of R7G11)”?
Answer: inhibition of cell proliferation (colony formation) (Hela cells): did not inhibit cell proliferation; inhibition of cell proliferation (colony formation) (MCF-7 cells): did not inhibit cell proliferation

Question: For “R7G44: peptide aptamer: variable region HQSTIGVAEF in human thioredoxin (SEQ ID 31); control without antiproliferative effect”, which “yeast two-hybrid interaction phenotype with CNA” value (CNA) is on record?
Answer: did not show an interaction phenotype

Question: And the “inhibition of cell proliferation (colony formation)” value (Hela cells)?
Answer: did not exert any antiproliferative effect

Question: And the “inhibition of cell proliferation (colony formation)” value (MCF-7 cells)?
Answer: did not exert any antiproliferative effect

Question: How did the “activation of CNA phosphatase activity” value ([1]; addition of purified calmodulin, pNPP) turn out when calmodulin [CaM, reference compound] was run?
Answer: required to activate CNA

B1: GST-R5G42: recombinant purified GST-aptamer fusion protein of R5G42 (protein)
chain: MVKQIESKTAFQEALDAAGDKLVVVDFSATWCGPSAVTFAVCALGPCKMIKPFFHSLSEKYSNVIFLEVDVDDCQDVASECEVKCMPTFQFFKKGQKVGEFSGANKEKLEATINELV
modifications: left off: a dimerising Fc or GST
Question: With B1 as the molecule, how does the “CNA phosphatase activity in absence of CaM” value ([1]; high concentrations of GST-aptamer, pNPP, 0.1 μM calcineurin) read?
Answer: activated CNA phosphatase activity in absence of CaM, to a level comparable to that observed using CaM

Question: What about the “effect on CaM-activated CNA phosphatase activity” value ([1]; in presence of CaM (not shown)) of the same molecule?
Answer: did not result in an inhibition or an exacerbation

Question: And the “capture of purified CNA by GST-aptamer solid phase” value [2]?
Answer: readily captured CNA
